Like-named read-outs stand apart in the source and are kept apart here.
Tests used:
N-type calcium channel = N-type calcium channel (Homo sapiens, UniProt Q00975); assay: Automated Electrophysiology Assay (QPatch-HT whole-cell patch clamp; low- and high-frequency stimulation); assay type: cell-based
[1] = molecular target: N-type calcium channel (α1B (Cav2.2), β3 and α2δ subunits) (Homo sapiens, UniProt Q00975); assay: Functional Assay: Antagonism of N-Type Calcium Channel (FDSS calcium mobilization, KCl depolarization); assay type: cell-based; conditions: for IC50: HEK cell line, 50 mM KCl depolarization, six-point concentration-response, read-out: FDSS IC50
Summary of the method: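 HEK cells stably co-expressing α1B (Cav2.2), β3 and α2δ were loaded with calcium dye, then given compound with fluorescence recorded for 5 min before 50 mM KCl depolarisation and 3 min more reading. IC50 came from six-point curves of maximal fluorescence, normalised to KCl maximum and buffer minimum.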

[2] = 0.1 μM, high-frequency stimulation (15th pulse), read-out: QPatch at High Frequency % Inhibition
[3] = low frequency, 0.1 μM, read-out: QPatch at Low Frequency % Inhibition
[4] = high-frequency stimulation (15th pulse), read-out: QPatch at High Frequency % Inhibition
[5] = low frequency, read-out: QPatch at Low Frequency % Inhibition

Chain of N-type calcium channel (Q00975 whole entry): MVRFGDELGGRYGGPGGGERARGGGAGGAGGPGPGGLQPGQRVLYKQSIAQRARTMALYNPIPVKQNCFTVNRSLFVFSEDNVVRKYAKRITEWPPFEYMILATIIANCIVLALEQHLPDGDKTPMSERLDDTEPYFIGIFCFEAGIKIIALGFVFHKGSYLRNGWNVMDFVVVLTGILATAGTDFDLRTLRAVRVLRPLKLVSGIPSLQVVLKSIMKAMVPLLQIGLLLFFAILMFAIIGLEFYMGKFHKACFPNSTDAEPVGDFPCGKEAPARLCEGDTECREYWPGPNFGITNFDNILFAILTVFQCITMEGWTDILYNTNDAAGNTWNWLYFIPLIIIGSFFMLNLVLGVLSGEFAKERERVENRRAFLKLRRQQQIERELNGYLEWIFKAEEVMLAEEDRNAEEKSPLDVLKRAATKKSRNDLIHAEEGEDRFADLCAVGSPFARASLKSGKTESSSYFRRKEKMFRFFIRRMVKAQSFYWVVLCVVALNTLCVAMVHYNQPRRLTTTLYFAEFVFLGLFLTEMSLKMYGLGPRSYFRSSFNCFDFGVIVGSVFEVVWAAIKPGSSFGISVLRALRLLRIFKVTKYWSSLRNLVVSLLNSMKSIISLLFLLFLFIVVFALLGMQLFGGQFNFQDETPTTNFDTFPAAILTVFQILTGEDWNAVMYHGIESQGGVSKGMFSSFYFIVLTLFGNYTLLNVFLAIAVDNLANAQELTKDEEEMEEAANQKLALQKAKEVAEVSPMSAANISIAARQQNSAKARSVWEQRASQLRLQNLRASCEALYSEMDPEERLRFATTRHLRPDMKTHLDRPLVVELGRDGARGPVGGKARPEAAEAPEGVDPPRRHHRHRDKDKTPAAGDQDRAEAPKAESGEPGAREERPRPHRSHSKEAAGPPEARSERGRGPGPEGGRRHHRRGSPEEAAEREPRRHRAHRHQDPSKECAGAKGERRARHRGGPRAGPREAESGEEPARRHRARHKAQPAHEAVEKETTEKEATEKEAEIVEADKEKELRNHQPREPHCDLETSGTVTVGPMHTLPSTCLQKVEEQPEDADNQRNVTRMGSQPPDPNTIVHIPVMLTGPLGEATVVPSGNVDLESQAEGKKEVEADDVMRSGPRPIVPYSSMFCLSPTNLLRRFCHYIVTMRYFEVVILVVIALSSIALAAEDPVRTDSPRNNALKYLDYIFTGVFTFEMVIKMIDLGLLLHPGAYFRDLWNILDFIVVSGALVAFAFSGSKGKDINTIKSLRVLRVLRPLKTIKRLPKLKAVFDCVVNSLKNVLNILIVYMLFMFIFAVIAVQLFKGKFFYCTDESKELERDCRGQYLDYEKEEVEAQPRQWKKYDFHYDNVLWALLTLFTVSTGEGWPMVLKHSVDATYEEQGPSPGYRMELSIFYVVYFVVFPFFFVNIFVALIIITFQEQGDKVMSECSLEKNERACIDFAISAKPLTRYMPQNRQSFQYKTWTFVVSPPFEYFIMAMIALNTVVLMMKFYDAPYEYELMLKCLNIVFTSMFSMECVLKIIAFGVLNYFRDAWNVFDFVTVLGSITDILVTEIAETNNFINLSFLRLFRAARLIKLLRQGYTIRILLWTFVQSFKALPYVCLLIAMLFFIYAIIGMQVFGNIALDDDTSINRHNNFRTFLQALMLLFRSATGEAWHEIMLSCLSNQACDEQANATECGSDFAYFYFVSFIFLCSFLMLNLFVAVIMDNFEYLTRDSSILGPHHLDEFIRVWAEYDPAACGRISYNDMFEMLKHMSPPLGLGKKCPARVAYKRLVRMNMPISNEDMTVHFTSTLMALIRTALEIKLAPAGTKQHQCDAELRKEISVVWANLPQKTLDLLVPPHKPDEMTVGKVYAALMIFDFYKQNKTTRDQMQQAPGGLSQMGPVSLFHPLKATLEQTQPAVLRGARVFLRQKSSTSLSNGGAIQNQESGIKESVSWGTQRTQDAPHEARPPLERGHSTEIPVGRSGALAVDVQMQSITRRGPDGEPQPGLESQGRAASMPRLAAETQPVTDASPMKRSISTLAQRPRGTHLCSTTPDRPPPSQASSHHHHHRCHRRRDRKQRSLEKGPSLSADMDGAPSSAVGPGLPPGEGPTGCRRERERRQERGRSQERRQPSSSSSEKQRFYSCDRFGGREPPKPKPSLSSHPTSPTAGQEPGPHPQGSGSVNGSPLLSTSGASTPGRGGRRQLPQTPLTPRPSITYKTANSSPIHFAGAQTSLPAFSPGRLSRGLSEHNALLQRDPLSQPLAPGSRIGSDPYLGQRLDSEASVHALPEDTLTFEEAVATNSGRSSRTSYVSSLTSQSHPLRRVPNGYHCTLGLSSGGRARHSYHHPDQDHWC
Chain of N-type calcium channel (P54284 whole entry partner): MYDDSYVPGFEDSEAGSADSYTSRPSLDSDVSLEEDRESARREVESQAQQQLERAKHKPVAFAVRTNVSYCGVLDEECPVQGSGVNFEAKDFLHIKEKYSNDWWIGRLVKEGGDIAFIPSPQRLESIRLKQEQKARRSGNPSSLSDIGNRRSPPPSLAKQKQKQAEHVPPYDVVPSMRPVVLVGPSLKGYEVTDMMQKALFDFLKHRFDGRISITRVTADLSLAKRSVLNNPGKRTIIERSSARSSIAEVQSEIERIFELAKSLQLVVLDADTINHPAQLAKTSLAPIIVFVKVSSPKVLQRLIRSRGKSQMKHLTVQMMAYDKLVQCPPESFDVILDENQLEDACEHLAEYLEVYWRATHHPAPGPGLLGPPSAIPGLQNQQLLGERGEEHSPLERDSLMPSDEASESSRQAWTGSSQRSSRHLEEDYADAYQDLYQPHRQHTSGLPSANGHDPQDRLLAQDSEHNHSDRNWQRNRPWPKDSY
Chain of N-type calcium channel (P54289 25-946 partner limits assumed): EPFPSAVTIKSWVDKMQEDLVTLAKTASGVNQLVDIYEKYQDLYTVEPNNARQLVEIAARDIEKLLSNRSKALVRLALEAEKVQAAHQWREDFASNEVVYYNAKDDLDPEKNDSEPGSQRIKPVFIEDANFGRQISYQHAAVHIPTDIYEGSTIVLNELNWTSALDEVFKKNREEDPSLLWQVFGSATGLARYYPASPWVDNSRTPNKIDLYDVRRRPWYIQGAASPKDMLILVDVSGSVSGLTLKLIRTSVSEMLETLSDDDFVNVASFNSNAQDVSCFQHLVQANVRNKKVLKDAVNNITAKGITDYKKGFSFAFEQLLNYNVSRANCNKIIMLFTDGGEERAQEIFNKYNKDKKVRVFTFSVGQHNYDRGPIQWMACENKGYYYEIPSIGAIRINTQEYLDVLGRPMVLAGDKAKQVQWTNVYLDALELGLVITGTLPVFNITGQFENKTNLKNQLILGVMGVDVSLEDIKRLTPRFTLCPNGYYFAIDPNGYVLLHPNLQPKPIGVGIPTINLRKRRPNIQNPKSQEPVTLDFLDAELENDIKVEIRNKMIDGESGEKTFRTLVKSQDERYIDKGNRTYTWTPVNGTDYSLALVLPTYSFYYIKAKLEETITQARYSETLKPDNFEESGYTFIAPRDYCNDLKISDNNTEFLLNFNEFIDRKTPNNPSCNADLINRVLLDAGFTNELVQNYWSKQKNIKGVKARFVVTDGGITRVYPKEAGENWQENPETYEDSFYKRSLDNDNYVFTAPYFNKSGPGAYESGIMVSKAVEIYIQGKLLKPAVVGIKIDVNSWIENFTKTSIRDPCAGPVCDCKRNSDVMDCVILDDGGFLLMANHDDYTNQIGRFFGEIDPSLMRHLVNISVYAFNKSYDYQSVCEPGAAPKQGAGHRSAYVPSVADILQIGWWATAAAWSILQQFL
Chain of N-type calcium channel (P54289 947-1103 partner limits assumed): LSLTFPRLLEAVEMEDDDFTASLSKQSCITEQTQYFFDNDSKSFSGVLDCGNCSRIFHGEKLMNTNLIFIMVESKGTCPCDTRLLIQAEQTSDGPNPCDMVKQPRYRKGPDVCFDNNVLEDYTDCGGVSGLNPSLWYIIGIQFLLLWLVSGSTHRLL
Chain of N-type calcium channel (α1B (Cav2.2), β3 and α2δ subunits) (Q00975 whole entry): as the sequence (Q00975 whole entry) above
Chain of N-type calcium channel (α1B (Cav2.2), β3 and α2δ subunits) (P54284 whole entry partner): as the sequence (P54284 whole entry partner) above
Chain of N-type calcium channel (α1B (Cav2.2), β3 and α2δ subunits) (P54289 25-946 partner limits assumed): as the sequence (P54289 25-946 partner limits assumed) above
Chain of N-type calcium channel (α1B (Cav2.2), β3 and α2δ subunits) (P54289 947-1103 partner limits assumed): as the sequence (P54289 947-1103 partner limits assumed) above

Compound COc1ccccc1-n1nc2c(c1-c1ccc(Cl)cc1)C[C@H](OC1CCCCO1)C2 (stereo partly drawn) [Compound 76, (5S)-3-(4-chlorophenyl)-2-(2-methoxyphenyl)-5-(tetrahydro-2H-pyran-2-yloxy)-2,4,5,6-tetrahydrocyclopenta[c]pyrazole] has an inhibition at 0.1 µM (N-type calcium channel; [2]) of 42%, an inhibition at 0.1 µM (N-type calcium channel; [3]) of 27% and an inhibition at 0.33 µM ([1]; 0.33 μM) of 92%. It also gave an IC50 [1] of 28 nM.
COc1ccccc1-n1nc2c(c1-c1ccc(C#N)cc1)CC1(C2)OCC(C)(C)CO1 [Compound 91, 4-[2-(2-methoxyphenyl)-5′,5′-dimethyl-2,6-dihydro-4H-spiro[cyclopenta[c]pyrazole-5,2′-[1,3]dioxan]-3-yl]benzonitrile] was tested, and the inhibition at 0.01 µM (N-type calcium channel; [4]) was 20%, the inhibition at 0.1 µM (N-type calcium channel; [2]) was 39% and the inhibition at 1 µM (N-type calcium channel; [4]) was 61%. The inhibition at 0.01 µM (N-type calcium channel; [5]) was 19%, the inhibition at 0.1 µM (N-type calcium channel; [3]) was 28% and the inhibition at 1 µM (N-type calcium channel; [5]) was 40%. It also gave an inhibition at 0.33 µM ([1]; 0.33 μM) of 89% and an IC50 [1] of 19 nM.
Work on COc1ccccc1-n1nc2c(c1-c1ccc(Cl)cc1)CC1(C2)O[C@H](C)C[C@@H](C)O1 (stereo partly drawn) [Compound 100, (4′R,6′R)-3-(4-chlorophenyl)-2-(2-methoxyphenyl)-4′,6′-dimethyl-2,6-dihydro-4H-spiro[cyclopenta[c]pyrazole-5,2′-[1,3]dioxane]] yielded an inhibition at 0.01 µM (N-type calcium channel; [4]) of 21%, an inhibition at 0.1 µM (N-type calcium channel; [2]) of 69% and an inhibition at 1 µM (N-type calcium channel; [4]) of 83%. The inhibition at 0.01 µM (N-type calcium channel; [5]) was 10%, the inhibition at 0.1 µM (N-type calcium channel; [3]) was 46% and the inhibition at 1 µM (N-type calcium channel; [5]) was 72%. It also gave an inhibition at 0.33 µM ([1]; 0.33 μM) of 101% and an IC50 [1] of 4.4 nM.
With COc1ccccc1-n1nc2c(c1-c1ccc(Cl)cc1)CC1(C2)O[C@H]2CCC[C@H]2O1 (stereo partly drawn) [Compound 115, (3aR,6aS)-3′-(4-chlorophenyl)-2′-(2-methoxyphenyl)-2′,4,5,6,6′,6a-hexahydro-3aH,4′H-spiro[cyclopenta[d][1,3]dioxole-2,5′-cyclopenta[c]pyrazole]] the “QPatch at High Frequency % Inhibition” value (N-type calcium channel; 0.1 μM, high-frequency stimulation (15th pulse)) was 37%, the “QPatch at Low Frequency % Inhibition” value (N-type calcium channel; low frequency, 0.1 μM) was 8% and the “% Inhibition (%) at 0.33 μM” value ([1]; 0.33 μM) was 85%. It also gave an IC50 [1] of 11 nM.
Compound COc1ccccc1-n1nc2c(c1-c1ccc(Cl)cc1)CC(c1cccnc1)C2 (stereo not shown) [Compound 63, 3-(4-chlorophenyl)-2-(2-methoxyphenyl)-5-pyridin-3-yl-2,4,5,6-tetrahydrocyclopenta[c]pyrazole] has an inhibition at 1 µM (N-type calcium channel; [4]) of 62%, an inhibition at 1 µM (N-type calcium channel; [5]) of 40% and an inhibition at 0.33 µM ([1]; 0.33 μM) of 98%. It also gave an IC50 [1] of 8.6 nM.
CC(C)S(=O)(=O)N(C)[C@@H]1Cc2nn(-c3cccc4c3OCC4)c(-c3ccc(Cl)cc3)c2C1 [Compound 51, N-[(5S)-3-(4-chlorophenyl)-2-(2,3-dihydro-1-benzofuran-7-yl)-2,4,5,6-tetrahydrocyclopenta[c]pyrazol-5-yl]-N-methylpropane-2-sulfonamide] gave an inhibition at 1 µM (N-type calcium channel; [4]) of 66%, an inhibition at 1 µM (N-type calcium channel; [5]) of 49% and an inhibition at 0.33 µM ([1]; 0.33 μM) of 94%. For the same compound, the IC50 [1] was 34 nM.
Work on COc1ccccc1-n1nc2c(c1-c1ccc(Cl)cc1)CC1(C2)O[C@@H](C)[C@@H](C)O1 (stereo partly drawn) [Compound 102, (4′R,5′S)-3-(4-chlorophenyl)-2-(2-methoxyphenyl)-4′,5′-dimethyl-2,6-dihydro-4H-spiro[cyclopenta[c]pyrazole-5,2′-[1,3]dioxolane]] yielded an inhibition at 1 µM (N-type calcium channel; [4]) of 58%, an inhibition at 1 µM (N-type calcium channel; [5]) of 42% and an inhibition at 0.33 µM ([1]; 0.33 μM) of 97%. For the same compound, the IC50 [1] was 7.6 nM.
COc1ccccc1-n1nc2c(c1-c1ccc(N(C)C)cc1)CC1(C2)OC(C)(C)C(C)(C)O1 [Compound 107, 4-[2-(2-methoxyphenyl)-4′,4′,5′,5′-tetramethyl-2,6-dihydro-4H-spiro[cyclopenta[c]pyrazole-5,2′-[1,3]dioxolan]-3-yl]-N,N-dimethylaniline] showed an inhibition at 0.1 µM (N-type calcium channel; [2]) of 33%, an inhibition at 0.1 µM (N-type calcium channel; [3]) of 34% and an inhibition at 0.33 µM ([1]; 0.33 μM) of 92%. It also gave an IC50 [1] of 3 nM.
In the case of COc1ccccc1-n1nc2c(c1-c1ccc(Cl)cc1)C[C@H](OC(=O)C1CCCCC1)C2 [Compound 78, (5S)-3-(4-chlorophenyl)-2-(2-methoxyphenyl)-2,4,5,6-tetrahydrocyclopenta[c]pyrazol-5-yl cyclohexanecarboxylate], the inhibition at 0.1 µM (N-type calcium channel; [2]) is reported as 27%, the inhibition at 0.1 µM (N-type calcium channel; [3]) is reported as 15% and the inhibition at 0.33 µM ([1]; 0.33 μM) is reported as 78%. The IC50 [1] was 93 nM.
With COc1ccccc1-n1nc2c(c1-c1ccc(Cl)cc1)CC1(C2)OCCCO1 [Compound 54, 3-(4-chlorophenyl)-2-(2-methoxyphenyl)-2,6-dihydro-4H-spiro[cyclopenta[c]pyrazole-5,2′-[1,3]dioxane]] the inhibition at 1 µM (N-type calcium channel; [4]) was 67%, the inhibition at 1 µM (N-type calcium channel; [5]) was 55% and the inhibition at 0.33 µM ([1]; 0.33 μM) was 86%. For the same compound, the IC50 [1] was 50 nM.
With COc1ccccc1-n1nc2c(c1-c1ccc(Cl)cc1)CC(CCNC(=O)OC(C)(C)C)C2 (stereo not shown) [Compound 13, tert-butyl{2-[3-(4-chlorophenyl)-2-(2-methoxyphenyl)-2,4,5,6-tetrahydrocyclopenta[c]pyrazol-5-yl]ethyl}carbamate] the inhibition at 1 µM (N-type calcium channel; [4]) was 67%, the inhibition at 1 µM (N-type calcium channel; [5]) was 42% and the IC50 [1] was 38 nM.
With CCOc1ccc(-c2c3c(nn2-c2ccccc2OC)CC2(C3)OC(C)(C)C(C)(C)O2)cn1 [Compound 108, 3-(6-ethoxypyridin-3-yl)-2-(2-methoxyphenyl)-4′,4′,5′,5′-tetramethyl-2,6-dihydro-4H-spiro[cyclopenta[c]pyrazole-5,2′-[1,3]dioxolane]] the inhibition at 0.1 µM (N-type calcium channel; [2]) was 13%, the inhibition at 0.1 µM (N-type calcium channel; [3]) was 3% and the inhibition at 0.33 µM ([1]; 0.33 μM) was 86%. For the same compound, the IC50 [1] was 10 nM.
CCOc1ccccc1-n1nc2c(c1-c1ccc(Cl)cc1)C[C@@H](N(C)S(=O)(=O)N(C)C)C2 [Compound 46, N-[(5R)-3-(4-chlorophenyl)-2-(2-ethoxyphenyl)-2,4,5,6-tetrahydrocyclopenta[c]pyrazol-5-yl]-N,N′,N′-trimethylsulfamide] showed an inhibition at 0.1 µM (N-type calcium channel; [2]) of 50%, an inhibition at 0.1 µM (N-type calcium channel; [3]) of 21% and an inhibition at 0.33 µM ([1]; 0.33 μM) of 99%. For the same compound, the IC50 [1] was 2.6 nM.
COc1ccccc1-n1nc2c(c1-c1ccc(C#N)cc1)C[C@H](n1cc(CC(C)C)nn1)C2 [Compound 127, 4-{(5S)-2-(2-methoxyphenyl)-5-[4-(2-methylpropyl)-1H-1,2,3-triazol-1-yl]-2,4,5,6-tetrahydrocyclopenta[c]pyrazol-3-yl}benzonitrile] was tested, and the inhibition at 0.1 µM (N-type calcium channel; [2]) was 26%, the inhibition at 0.1 µM (N-type calcium channel; [3]) was 13% and the inhibition at 0.33 µM ([1]; 0.33 μM) was 97%. The IC50 [1] was 17 nM.
With CCOc1ccccc1-n1nc2c(c1-c1ccc(Cl)cc1)CC(OC(=O)N1CCOCC1)C2 (stereo not shown) [Compound 31, 3-(4-chlorophenyl)-2-(2-ethoxyphenyl)-2,4,5,6-tetrahydrocyclopenta[c]pyrazol-5-yl morpholine-4-carboxylate] the inhibition at 0.1 µM (N-type calcium channel; [2]) was 22%, the inhibition at 0.1 µM (N-type calcium channel; [3]) was 14% and the IC50 [1] was 18 nM.
For CCOc1ccccc1-n1nc2c(c1-c1ccc(Cl)cc1)CC(n1ccnn1)C2 (stereo not shown) [Compound 42, 3-(4-chlorophenyl)-2-(2-ethoxyphenyl)-5-(1H-1,2,3-triazol-1-yl)-2,4,5,6-tetrahydrocyclopenta[c]pyrazole], the inhibition at 1 µM (N-type calcium channel; [4]) was 87%, the inhibition at 1 µM (N-type calcium channel; [5]) was 86% and the inhibition at 0.33 µM ([1]; 0.33 μM) was 91%. The IC50 [1] was 19 nM.
With COc1ccc(-c2c3c(nn2-c2ccccc2OC)CC2(C3)OCC(C)(C)CO2)cn1 [Compound 96, 2-(2-methoxyphenyl)-3-(6-methoxypyridin-3-yl)-5′,5′-dimethyl-2,6-dihydro-4H-spiro[cyclopenta[c]pyrazole-5,2′-[1,3]dioxane]] the inhibition at 0.1 µM (N-type calcium channel; [2]) was 20%, the inhibition at 0.1 µM (N-type calcium channel; [3]) was -1% and the inhibition at 0.33 µM ([1]; 0.33 μM) was 81%. For the same compound, the IC50 [1] was 34 nM.
Compound COc1ccccc1-n1nc2c(c1-c1ccc(Cl)cc1)CC(CCOC(=O)N1CCOCC1)C2 (stereo not shown) [Compound 2, 2-[3-(4-chlorophenyl)-2-(2-methoxyphenyl)-2,4,5,6-tetrahydrocyclopenta[c]pyrazol-5-yl]ethyl morpholine-4-carboxylate] has an inhibition at 0.25 µM (N-type calcium channel; [4]) of 58%, an inhibition at 1 µM (N-type calcium channel; [4]) of 69% and an inhibition at 5 µM (N-type calcium channel; [4]) of 97%. For the same compound, the inhibition at 0.25 µM (N-type calcium channel; [5]) was 54%, the inhibition at 1 µM (N-type calcium channel; [5]) was 76% and the inhibition at 5 µM (N-type calcium channel; [5]) was 90%. The IC50 [1] was 33 nM.
For COc1ccc(-c2c3c(nn2-c2ccccc2OC)C[C@H](N(C)S(=O)(=O)N(C)C)C3)cn1 [Compound 56, N-[(5R)-2-(2-Methoxyphenyl)-3-(6-methoxypyridin-3-yl)-2,4,5,6-tetrahydrocyclopenta[c]pyrazol-5-yl]-N,N′,N′-trimethylsulfamide], the inhibition at 0.1 µM (N-type calcium channel; [2]) was 2%, the inhibition at 1 µM (N-type calcium channel; [4]) was 47% and the inhibition at 0.1 µM (N-type calcium channel; [3]) was -1%. For the same compound, the inhibition at 1 µM (N-type calcium channel; [5]) was 32%, the inhibition at 0.33 µM ([1]; 0.33 μM) was 93% and the IC50 [1] was 13 nM.
In the case of COc1ccccc1-n1nc2c(c1-c1ccc(Cl)cc1)C[C@H](OC(C)C)C2 [Compound 67, (5S)-3-(4-chlorophenyl)-2-(2-methoxyphenyl)-5-(1-methylethoxy)-2,4,5,6-tetrahydrocyclopenta[c]pyrazole], the inhibition at 0.1 µM (N-type calcium channel; [2]) is reported as 61%, the inhibition at 0.1 µM (N-type calcium channel; [3]) is reported as 48% and the inhibition at 0.33 µM ([1]; 0.33 μM) is reported as 100%. For the same compound, the IC50 [1] was 5.7 nM.
Compound COc1ccccc1-n1nc2c(c1-c1ccc(Cl)cc1)CC(NS(=O)(=O)N(C)C)C2 (stereo not shown) [Compound 34, N′-[3-(4-chlorophenyl)-2-(2-methoxyphenyl)-2,4,5,6-tetrahydrocyclopenta[c]pyrazol-5-yl]-N,N-dimethylsulfamide] has an inhibition at 0.1 µM (N-type calcium channel; [2]) of 37%, an inhibition at 0.1 µM (N-type calcium channel; [3]) of 34% and an IC50 [1] of 14 nM.
COc1ccccc1-n1nc2c(c1-c1ccc(Cl)cc1)CC(OC(=O)N1CCOCC1)C2 (stereo not shown) [Compound 29, 3-(4-chlorophenyl)-2-(2-methoxyphenyl)-2,4,5,6-tetrahydrocyclopenta[c]pyrazol-5-yl morpholine-4-carboxylate] gave an inhibition at 0.1 µM (N-type calcium channel; [2]) of 21%, an inhibition at 0.1 µM (N-type calcium channel; [3]) of -8% and an IC50 [1] of 43 nM.
